According to publication PMC4840125, “[^18F]tetrafluoroborate as a PET tracer for the sodium/iodide symporter: the importance of specific activity” (EJNMMI Research, 2016):

Target: T1, human sodium/iodide symporter (hNIS) (Homo sapiens, UniProt Q92911)
T1 construct: gene SLC5A5; hNIS stably transfected in HCT116 human colon carcinoma cells (HCT116-hNIS-C19)
T1 sequence (Q92911 1-643): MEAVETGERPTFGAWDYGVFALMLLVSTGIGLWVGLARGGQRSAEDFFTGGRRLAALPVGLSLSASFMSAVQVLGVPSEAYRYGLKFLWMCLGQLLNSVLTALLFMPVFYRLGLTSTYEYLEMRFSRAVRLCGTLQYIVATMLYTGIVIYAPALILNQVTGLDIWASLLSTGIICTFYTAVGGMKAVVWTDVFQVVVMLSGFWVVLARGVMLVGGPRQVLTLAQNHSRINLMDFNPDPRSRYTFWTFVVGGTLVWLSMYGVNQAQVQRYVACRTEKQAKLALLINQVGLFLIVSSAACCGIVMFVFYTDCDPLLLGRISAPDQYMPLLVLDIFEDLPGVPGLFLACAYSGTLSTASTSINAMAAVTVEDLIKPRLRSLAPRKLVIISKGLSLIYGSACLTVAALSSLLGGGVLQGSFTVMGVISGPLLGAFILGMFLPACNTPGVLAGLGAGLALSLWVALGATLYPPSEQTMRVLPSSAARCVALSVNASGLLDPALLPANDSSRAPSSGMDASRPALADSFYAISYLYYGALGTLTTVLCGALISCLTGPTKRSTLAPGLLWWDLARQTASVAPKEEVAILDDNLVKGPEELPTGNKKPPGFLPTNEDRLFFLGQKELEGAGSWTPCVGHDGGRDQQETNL
Assay: inhibition of […]BF4- uptake in hNIS-transfected cells, gamma counting
Format: cell-based

F[B-](F)(F)F [[19F]BF4-]
IC50: 4.7 µM
